The conditions of data set [1]: the molecule shown is the open-chain precursor.
Data set [2] relates to AGS cells. Nature of the data set: 3D cell proliferation assay (CellTiter-Glo 3D), AGS. To be noted: 5 days, read-out: 3D Proliferation Inhibition AGS_IC50. It is filed as cell-based. The protocol: (§1) Using a nanoliter liquid handling system (LABCYTE, P-0200), the diluted test compounds were added to a 384-well low-adsorption cell culture plate. Cells were seeded into the wells, and the plate was placed in an incubator at 37° C. with 5% CO2. After co-incubating the compounds and cells for 5 days, CellTiter-Glo® 3D reagent was added. Luminescence values were measured using an EnVision Multilabel Plate Reader (luminescence is proportional to the ATP content in the system, and ATP content directly reflects the number of viable cells). Finally, the IC50 values (half-maximal inhibitory concentrations) of the compounds were determined using non-linear fitting equations in XLFit software with the following parameters: […]
(§2) X: Logarithm of compound concentration • Y: Inhibition rate (%)
(§3) [formula] • Negative control: DMSO • Positive control: Medium only

In data set [3] the test system is AsPC-1 cells. Description: 3D cell proliferation assay (CellTiter-Glo 3D), AsPC-1. It is filed as cell-based. The following applies: 5 days, read-out: 3D Proliferation Inhibition AsPC-1_IC50. The protocol:
as §1, §2, §3

Data set [4] relates to pERK in AGS cells. Nature of the data set: ERK phosphorylation cell assay, AGS. The following applies: 3 hours compound incubation, read-out: pERK AGS_IC50. The format is cell-based. Summed up: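 AGS […] cells, seeded overnight, were treated with compound for 3 hours at 37° C. pERK was detected by in-cell immunofluorescence, with GAPDH as normalizer, using 800CW/680RD secondary antibodies. Mean relative p-ERK levels were fitted against log concentration, with DMSO as negative and 10 μM Reference as positive control.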

Data set [5] relates to pERK in AsPC-1 cells. Nature of the data set: ERK phosphorylation cell assay, AsPC-1. It is filed as cell-based. To be noted: read-out: pERK AsPC-1_IC50.
Where [6] appears, read: Homo sapiens, ASPC1, AsPC-1 cells.

Values joined by “and” are separate entries in the source; they are usually repeats but may differ in a detail not shown here. Equal entries are not always repeated. Where two headings read alike, the source gives them in different places. Some results are limits rather than exact numbers.

As to `C#CCCCCC(=O)Nc1cc2c(N3C[C@H]4CC[C@@H](C3)N4C(=O)OC(C)(C)C)nc(OCC(F)(F)F)nc2c(F)c1-c1cc(OCOC)cc2ccc(F)c(C#C)c12`, the ring closure, isolated yield in data set [1] (cc_pd bond, 15-membered ring, PdCl2(PPh3)2/CuI/I2, toluene/iPr2NH 1:1, 1.1 mM, 80.0 °C) came to 53%.

Take `C=C1CN2CCCC2(COc2nc(N3CCC[C@@](C)(O)C3)c3cc4c(c(F)c3n2)-c2cc(O)cc3ccc(F)c(c23)CCCCCN4C)C1` (single isomer, unassigned) [Example 22A]: the IC50 came to 0.09 µM in data set [2], 0.166 µM in data set [3], 0.026 µM in data set [4] and 0.085 µM in data set [5] (AsPC-1 cells).

`C[C@@]1(O)CCCN(c2nc(OCC3(N4CCOCC4)CC3)nc3c(F)c4c(cc23)NCCCCCc2c(F)ccc3cc(O)cc-4c23)C1` (single isomer, unassigned) [Example 33B]: the IC50 in data set [2] was 3.08 µM; in data set [3] it was 4.67 µM; in data set [4], above 10 µM; in data set [5] (AsPC-1 cells) it was above 10 µM.

`CN(C)CC1(COc2nc(N3CCC[C@@](C)(O)C3)c3cc4c(c(F)c3n2)-c2cc(O)cc3ccc(F)c(c23)CCCCCN4)CC1` [Example 27]: the IC50 in data set [2] (Homo sapiens, AGS, 120 h) came out at 0.314 µM; in data set [3] (Homo sapiens, ASPC1, 120 h) it was 1 µM; in data set [4] (Homo sapiens, AGS, 3 h), 0.099 µM; in data set [5] (setting [6]), 0.338 µM.

Take `CN1CC(F)(F)C[C@H]1COc1nc(N2CCC[C@@](C)(O)C2)c2cc3c(c(F)c2n1)-c1cc(O)cc2ccc(F)c(c12)CCCCCN3` [Example 34, 13-(((S)-4,4-difluoro-1-methylpyrrolidin-2-yl)methoxy)-3,15-difluoro-11-((R)-3-hydroxy-3-methylpiperidin-1-yl)-4,5,6,7,8,9-hexahydro-naphtho[1′,8′:4,5,6][1]azacycloundecino[2,3-g]quinazoline-17-ol]: the IC50 in data set [2] (Homo sapiens, AGS, 120 h) was 3.66 µM; in data set [3] (Homo sapiens, ASPC1, 120 h), 3.35 µM; in data set [4] (Homo sapiens, AGS, 3 h), 8.96 µM; in data set [5] (setting [6]) it was above 10 µM.

With `C[C@@]1(O)CCCN(c2nc(OCC34CCCN3C[C@]3(C4)CC3(F)F)nc3c(F)c4c(cc23)NCCCCCc2c(F)ccc3cc(O)cc-4c23)C1` (single isomer, unassigned) [Example 24A], the IC50 in data set [2] (Homo sapiens, AGS, 120 h) was 0.508 µM; in data set [3] (Homo sapiens, ASPC1, 120 h), 0.847 µM; in data set [4], 0.091 µM; in data set [5] (AsPC-1 cells), 0.352 µM.

Regarding `CN1CCC[C@H]1COc1nc(N2CCC[C@@](C)(O)C2)c2cc3c(c(F)c2n1)-c1cc(O)cc2ccc(F)c(c12)CCCCCN3` (single isomer, unassigned) [Example 28A], the IC50 was determined as 0.43 µM in data set [2], 1.76 µM in data set [3], 0.194 µM in data set [4] and 0.776 µM in data set [5] (AsPC-1 cells).

“3,15-difluoro-13-((2R,7aS)-2-fluorotetrahydro-1H-pyrazin-7a(5H)-yl)methoxy)-11-((R)-3-hydroxy-3-methylpiperidin-1-yl)-4,5,8,9-tetrahydro-7H-naphtho[1′,8′:7,8,9][1]oxa[4]azacycloundeca[5,6-g]quinazoline-17-ol [Example 43A]”: the IC50 was 0.022 µM and 0.024 µM in data set [2]; 0.06 µM and 0.055 µM in data set [3]; 0.0046 µM in data set [4]; 0.015 µM in data set [5] (AsPC-1 cells).

Take `C=C1CN2CCC[C@@]2(COc2nc(N3CCC[C@@](C)(O)C3)c3cc4c(c(F)c3n2)-c2cccc3ccc(F)c(c23)CCOCCN4C)C1` [Example 54, (R)-1-(3,15-difluoro-9-methyl-13-(((S)-2-methylenetetrahydro-1H-pyrazin-7a(5H)-yl)methoxy)-4,5,8,9-tetrahydro-7H-naphtho[1′,8′:7,8,9][1]oxa[4]azacycloundeca[5,6-g]quinazoline-11-yl)-3-methylpiperidin-3-ol]: the IC50 in data set [2] (Homo sapiens, AGS, 120 h) came to 0.885 µM; in data set [3] (Homo sapiens, ASPC1, 120 h), 1.26 µM; in data set [4] (Homo sapiens, AGS, 3 h), 0.659 µM; in data set [5] (setting [6]) it was 0.892 µM.

For `C=C1CN2CCC[C@@]2(COc2nc(N3CCC[C@@](C)(O)C3)c3cc4c(c(F)c3n2)-c2cc(O)cc3ccc(F)c(c23)CCOCCN4)C1` (single isomer, unassigned) [Example 42A], the IC50 in data set [2] worked out at 0.125 µM; in data set [3] it was 0.456 µM; in data set [4] it was 0.026 µM; in data set [5] (AsPC-1 cells), 0.134 µM.

The molecule `COCOc1cc(-c2c(NC(=O)OCc3ccccc3)cc3c(N4C[C@H]5CC[C@@H](C4)N5C(=O)OC(C)(C)C)nc(OCC(F)(F)F)nc3c2F)c2c(CCCCCCO)c(F)ccc2c1` returned a ring closure, isolated yield in data set [1] (amine bond, 12-membered ring, PPh3/DIAD, THF, 32.5 mM, 65.0 °C) of 34%.

Consider `C[C@@]1(O)CCCN(c2nc(OCC34CCCN3CC3(CC3)C4)nc3c(F)c4c(cc23)NCCCCCc2c(F)ccc3cc(O)cc-4c23)C1` (stereo partly drawn) [Example 23], for which the IC50 in data set [2] (Homo sapiens, AGS, 120 h) was determined as 0.346 µM; in data set [3] (Homo sapiens, ASPC1, 120 h), 2.1 µM; in data set [4], 0.157 µM; in data set [4] (Homo sapiens, AGS, 3 h), 0.135 µM; in data set [5] (AsPC-1 cells), 0.754 µM; in data set [5] (setting [6]), 0.728 µM.

In the case of `Oc1cc2c3c(c(F)ccc3c1)CCCCCNc1cc3c(N4CC5CCC(C4)N5)nc(OC[C@@]45CCCN4C[C@H](F)C5)nc3c(F)c1-2` [Example 5, 11-((1R,5S)-3,8-Diazabicyclo[3.2.1]octane-3-yl)-3,15-difluoro-13-(((2R,7aS)-2-fluorotetrahydro-1H-pyrrolin-7a(5H)-yl)methoxy)-4,5,6,7,8,9-hexahydro-naphtho[1′,8′:4,5,6][1]azacycloundecino[2,3-g]quinazolin-17-ol], the IC50 in data set [2] (Homo sapiens, AGS, 120 h) is 0.128 µM; in data set [3] (Homo sapiens, ASPC1, 120 h), 0.196 µM; in data set [4] (Homo sapiens, AGS, 3 h) it was 0.012 µM; in data set [5] (setting [6]), 0.041 µM.

The values are drawn from US20260049089A1, “KRAS INHIBITOR COMPOUND” (SHANGHAI APEIRON THERAPEUTICS COMPANY LIMITED, priority 2022, published 2026).
